Measured values taken from PubChem BioAssay (NCI).
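Assay format: 96-well plates, 48-hour exposure. TGI denotes the concentration required for complete inhibition of growth.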

How the values were obtained:
Test in all cases: NCI tumour cell line growth inhibition, 48 h
M14 melanoma = system: M14 melanoma
NCI-H460 lung = system: NCI-H460 lung
SR leukemia = system: SR leukemia
NCI/ADR-RES ovarian = system: NCI/ADR-RES ovarian
HL-60(TB) leukemia = system: HL-60(TB) leukemia
HT29 colon = system: HT29 colon
OVCAR-8 ovarian = system: OVCAR-8 ovarian
U251 CNS = system: U251 CNS
SF-295 CNS = system: SF-295 CNS

| Compound | TGI (M14 melanoma) | TGI (NCI-H460 lung) | TGI (SR leukemia) | TGI (NCI/ADR-RES ovarian) | TGI (HL-60(TB) leukemia) | TGI (HT29 colon) | TGI (OVCAR-8 ovarian) | TGI (U251 CNS) | TGI (SF-295 CNS) |
| --- | --- | --- | --- | --- | --- | --- | --- | --- | --- |
| Cc1ccc(C(=O)Nc2ccc(S(=O)(=O)O)c3cc(S(=O)(=O)O)cc(S(=O)(=O)O)c23)cc1NC(=O)c1cccc(NC(=O)Nc2cccc(C(=O)Nc3cc(C(=O)Nc4ccc(S(=O)(=O)O)c5cc(S(=O)(=O)O)cc(S(=O)(=O)O)c45)ccc3C)c2)c1 (tested in a mixture with another compound) | > 50 µM | > 50 µM | > 50 µM | > 50 µM | > 50 µM | > 50 µM | > 50 µM | > 50 µM | > 50 µM |
| CSc1nc2c(=O)n(-c3ccccc3)c(=S)n(-c3ccccc3)c2s1 | > 100 µM | > 100 µM | > 100 µM | > 100 µM | > 100 µM | > 100 µM | > 100 µM | > 100 µM | > 100 µM |
| CCOc1ccc2nc(NC(NC(=O)c3cccnc3)(C(F)(F)F)C(F)(F)F)sc2c1 | > 100 µM | > 100 µM | > 100 µM | 93.3 µM | 94.8 µM | 30.5 µM | 88 µM | > 100 µM | > 100 µM |
| CC(C)(C)[C@H]1CCC2(OCCO2)[C@](O)(CCCO)C1 | > 100 µM | > 100 µM | > 100 µM | > 100 µM | > 100 µM | > 100 µM | > 100 µM | > 100 µM | > 100 µM |
| C=C(C(=O)OC)c1cc2ccccc2n1S(=O)(=O)c1ccccc1 | 9.55 µM | 8.23 µM | > 100 µM | 18.7 µM | 10.2 µM | 24.9 µM | 8.42 µM | 5.12 µM | 20.8 µM |
| CC(=O)N1c2ccccc2C(C)C1c1[nH]c2ccccc2c1C (stereo not given) | 42.5 µM | > 100 µM | 51.8 µM | > 100 µM | 44.4 µM | 57.1 µM | 57.3 µM | 51.5 µM | 32 µM |
| N#Cc1nc(CCC(c2nc(C#N)c(N)o2)N2C(=O)c3ccccc3C2=O)oc1N (stereo not given) | > 100 µM | > 100 µM | > 100 µM | > 100 µM | > 100 µM | > 100 µM |  | > 100 µM | > 100 µM |
| c1ccc(-c2cc(-c3cccs3)c(-c3cccs3)o2)cc1 | > 100 µM | > 100 µM | > 100 µM | > 100 µM | > 100 µM | > 100 µM | > 100 µM | > 100 µM | > 100 µM |
| C=C(C)[C@@H]1CCC2=C[C@H](CC(C)=CC3=CC(C)=C(O3)[C@@H]1OC)OC2=O | > 100 µM | > 100 µM | > 100 µM | > 100 µM | > 100 µM |  | > 100 µM | > 100 µM | 70.5 µM |
| COc1ccc(-c2cc(-c3cc(F)c(Cl)cc3Cl)on2)cc1OC | > 100 µM | > 100 µM | 13.1 µM | > 100 µM | 63.4 µM | > 100 µM | > 100 µM | > 100 µM | > 100 µM |
| CCOC(=O)C(C(=O)OCC)=C1NC2(c3ccccc3Nc3ccc(C)cc32)C(C(=O)OC)S1 (stereo not given) | > 100 µM | > 100 µM | > 100 µM | > 100 µM | > 100 µM | > 100 µM | > 100 µM | > 100 µM | > 100 µM |
| C=CCN(c1cc(OC)c2[nH]cc(C)c2c1[N+](=O)[O-])S(C)(=O)=O | > 100 µM | > 100 µM | > 100 µM | > 100 µM | > 100 µM |  | > 100 µM | > 100 µM | > 100 µM |
| CCSc1nc(N)c2c(-c3ccccc3)c3c(nc2n1)CCC3 | > 100 µM | > 100 µM | > 100 µM | > 100 µM | > 100 µM |  | > 100 µM | > 100 µM | > 100 µM |
| CCN(CC)CCCOc1cc2c(cc1OC)C(=O)N1CCC[C@H]1C=N2 | > 100 µM | > 100 µM | > 100 µM | > 100 µM | > 100 µM | 39.5 µM | > 100 µM | > 100 µM | 75.5 µM |
| COc1cc2c(cc1OCCCC(=O)Nc1cc(C(=O)NCCCN(C)C)n(C)n1)N=CC1CCCN1C2=O (stereo not given) | > 27.6 µM | > 100 µM | 0.59 µM | > 74.4 µM | 0.24 µM | 18.2 µM | > 24 µM | > 20.7 µM | > 100 µM |
| c1ccc2nc(CCC3CCCCN3)ccc2c1 (stereo not given) | > 100 µM | > 100 µM | > 100 µM | > 100 µM | > 100 µM | > 100 µM | > 100 µM | > 100 µM | > 100 µM |
| COC(=O)c1ccccc1C1CN=NC12Cc1cccc(C)c1C2=O (stereo not given) |  | > 100 µM | > 100 µM | 45.7 µM | 72.1 µM | > 100 µM | > 100 µM | > 100 µM | > 100 µM |
| CCN(CC)C(=O)N1CN(c2ccccc2)C2(CCN(CCCSc3ccc(F)cc3)CC2)C1=O | 15.3 µM |  | 18 µM | 83.4 µM | 19.4 µM | 13 µM | 54.4 µM | 26.8 µM | 25.1 µM |
| Nn1c(Cc2ccccc2)n[nH]c1=O | > 100 µM |  | > 100 µM | > 100 µM | > 100 µM | > 100 µM | > 100 µM | > 100 µM | > 100 µM |
| Cc1cc2nc(N3C(=O)/C(=C/c4ccc(Cl)cc4)N=C3c3ccccc3)sc2cc1C | > 100 µM | > 100 µM | > 100 µM | 87.3 µM | 51.7 µM | 63.2 µM | > 100 µM | 84.7 µM | > 100 µM |
| Clc1nc(Cl)c(CBr)c(Cl)n1 | 8.38 µM | 18.5 µM | > 100 µM | > 43.2 µM | > 100 µM | 32.9 µM | 10.2 µM | 14.6 µM | 16.1 µM |
| C#CC(O)/C=C/C(O)CCCC(O)CC#CC(O)C#CC(O)CCCC(O)/C=C/CCCC(=O)CCCCCCCCCCCCCCCC(O)C(O)C#CC(=O)O (stereo not given) | > 50 µM | > 50 µM | > 50 µM | > 50 µM | 27.4 µM | > 50 µM | > 50 µM | > 50 µM | > 50 µM |
| S=C(Nc1ccccn1)Nc1ccccc1Cl | > 100 µM | > 100 µM | > 100 µM | > 100 µM | > 100 µM | > 100 µM | > 100 µM | > 100 µM | > 100 µM |
